According to patent US11168073B2, “3,3-difluoroallylamines or salts thereof and pharmaceutical compositions comprising the same” (YUHAN CORPORATION, priority 2018, dated 2021):
Structures can show the parent of a compound that is named as a salt.

Legend:
Format in all cases: biochemical
[1] = molecular target: T1, recombinant human MAO-A (monoamine oxidase-A) (Homo sapiens, UniProt P21397); assay: Activity evaluation on recombinant human MAO-A (Amplex Red/HRP-coupled assay, 0.5 mM tyramine substrate); details: 0.5 mM tyramine substrate, read-out: Inhibitory Activity (IC50, nM) MAO-A
T1 construct: purchased Sigma-Aldrich
T1 sequence (P21397 1-527): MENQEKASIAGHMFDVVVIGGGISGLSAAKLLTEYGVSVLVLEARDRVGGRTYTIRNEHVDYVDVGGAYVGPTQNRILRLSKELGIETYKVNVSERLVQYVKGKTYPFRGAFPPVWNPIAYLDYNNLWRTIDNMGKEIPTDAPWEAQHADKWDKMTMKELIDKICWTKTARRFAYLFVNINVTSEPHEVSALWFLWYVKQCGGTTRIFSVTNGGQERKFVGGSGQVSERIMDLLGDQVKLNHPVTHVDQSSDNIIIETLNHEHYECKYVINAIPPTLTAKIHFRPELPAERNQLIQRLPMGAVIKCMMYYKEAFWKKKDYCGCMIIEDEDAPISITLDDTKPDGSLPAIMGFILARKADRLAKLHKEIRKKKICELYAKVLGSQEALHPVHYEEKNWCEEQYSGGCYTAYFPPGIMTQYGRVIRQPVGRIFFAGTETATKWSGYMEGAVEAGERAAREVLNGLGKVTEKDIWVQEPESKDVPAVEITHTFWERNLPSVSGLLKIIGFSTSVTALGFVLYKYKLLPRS
How it was run: (§1)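 Enzyme activity was measured as fluorescence rate (ex 544, em 590 nm) from resorufin formed by HRP-coupled H2O2 oxidation of 200 uM Amplex Red. Compounds were first incubated 30 min at 37 °C with enzyme at pH 7.4; substrates were 0.5 mM tyramine (MAO-A), 1 mM benzylamine (MAO-B) and 1 mM putrescine (DAO).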

recombinant human VAP-1 = molecular target: T2, recombinant human VAP-1 (Homo sapiens, UniProt Q16853); assay: Activity evaluation on recombinant human VAP-1 (Amplex Red/HRP-coupled hydrogen peroxide assay, benzylamine substrate); details: recombinant human VAP-1, benzylamine substrate; read-out: Inhibitory Activity (IC50, nM) human VAP-1
T2 construct: purchased R&D systems
T2 sequence (Q16853 1-763): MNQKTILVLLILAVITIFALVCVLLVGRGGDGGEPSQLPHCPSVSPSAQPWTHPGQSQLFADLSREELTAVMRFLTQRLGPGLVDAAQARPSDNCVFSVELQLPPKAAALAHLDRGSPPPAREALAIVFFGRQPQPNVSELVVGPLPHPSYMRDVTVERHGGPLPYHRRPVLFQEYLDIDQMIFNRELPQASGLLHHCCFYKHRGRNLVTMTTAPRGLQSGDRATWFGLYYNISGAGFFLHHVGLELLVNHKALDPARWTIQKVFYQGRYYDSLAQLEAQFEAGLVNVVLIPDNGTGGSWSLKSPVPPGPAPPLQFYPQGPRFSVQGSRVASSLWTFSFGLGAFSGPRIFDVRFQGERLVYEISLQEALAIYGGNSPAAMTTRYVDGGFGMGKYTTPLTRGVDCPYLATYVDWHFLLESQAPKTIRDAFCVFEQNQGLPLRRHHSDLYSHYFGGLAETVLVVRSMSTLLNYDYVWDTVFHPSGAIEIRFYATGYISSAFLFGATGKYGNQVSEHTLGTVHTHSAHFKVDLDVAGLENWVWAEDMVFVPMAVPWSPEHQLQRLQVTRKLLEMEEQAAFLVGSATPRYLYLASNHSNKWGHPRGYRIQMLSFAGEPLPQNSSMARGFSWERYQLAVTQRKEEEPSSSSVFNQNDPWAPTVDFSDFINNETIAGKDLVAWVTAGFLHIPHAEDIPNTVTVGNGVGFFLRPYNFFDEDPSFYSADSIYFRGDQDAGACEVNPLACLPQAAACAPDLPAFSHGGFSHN
How it was run: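 Recombinant human VAP-1 in 50 mM sodium phosphate pH 7.4 preincubated 30 min at 37 °C with compound (8-point 1:3 series, <1% DMSO), then 1 mM benzylamine, 200 uM Amplex Red, 1 U/mL HRP added. H2O2-derived resorufin fluorescence (ex 544/em 590) followed 1–2 h; IC50 from four-parameter fit of rate inhibition.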

[2] = molecular target: T3, recombinant human DAO (diamine oxidase) (Homo sapiens, UniProt P19801); assay: Activity evaluation on recombinant human DAO (Amplex Red/HRP-coupled assay, 1 mM putrescine substrate); details: 1 mM putrescine substrate, read-out: Inhibitory Activity (IC50, nM) DAO
T3 construct: purchased R&D systems
T3 sequence (P19801 20-751): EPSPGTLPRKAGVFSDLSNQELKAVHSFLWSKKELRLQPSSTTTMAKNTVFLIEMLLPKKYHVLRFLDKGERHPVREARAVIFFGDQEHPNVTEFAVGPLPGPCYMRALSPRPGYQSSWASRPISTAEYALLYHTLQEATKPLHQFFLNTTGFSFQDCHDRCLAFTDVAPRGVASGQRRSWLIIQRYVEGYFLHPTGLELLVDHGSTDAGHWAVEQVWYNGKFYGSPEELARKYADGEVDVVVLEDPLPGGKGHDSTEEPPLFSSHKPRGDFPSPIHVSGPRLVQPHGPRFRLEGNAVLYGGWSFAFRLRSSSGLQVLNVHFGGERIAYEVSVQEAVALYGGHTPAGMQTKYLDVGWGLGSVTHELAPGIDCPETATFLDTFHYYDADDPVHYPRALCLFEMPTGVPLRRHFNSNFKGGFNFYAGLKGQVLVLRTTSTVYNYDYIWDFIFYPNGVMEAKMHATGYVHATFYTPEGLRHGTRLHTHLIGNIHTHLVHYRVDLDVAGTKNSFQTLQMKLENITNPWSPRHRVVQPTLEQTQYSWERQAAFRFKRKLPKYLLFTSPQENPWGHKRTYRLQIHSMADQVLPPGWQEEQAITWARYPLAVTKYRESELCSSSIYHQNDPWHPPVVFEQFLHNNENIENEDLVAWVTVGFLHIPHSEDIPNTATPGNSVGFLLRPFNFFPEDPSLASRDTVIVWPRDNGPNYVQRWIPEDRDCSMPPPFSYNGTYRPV
How it was run: as §1

[3] = molecular target: T4, recombinant human MAO-B (monoamine oxidase-B) (Homo sapiens, UniProt P27338); assay: Activity evaluation on recombinant human MAO-B (Amplex Red/HRP-coupled assay, 1 mM benzylamine substrate); details: 1 mM benzylamine substrate, read-out: Inhibitory Activity (IC50, nM) MAO-B
T4 construct: purchased Sigma-Aldrich
T4 sequence (P27338 1-520): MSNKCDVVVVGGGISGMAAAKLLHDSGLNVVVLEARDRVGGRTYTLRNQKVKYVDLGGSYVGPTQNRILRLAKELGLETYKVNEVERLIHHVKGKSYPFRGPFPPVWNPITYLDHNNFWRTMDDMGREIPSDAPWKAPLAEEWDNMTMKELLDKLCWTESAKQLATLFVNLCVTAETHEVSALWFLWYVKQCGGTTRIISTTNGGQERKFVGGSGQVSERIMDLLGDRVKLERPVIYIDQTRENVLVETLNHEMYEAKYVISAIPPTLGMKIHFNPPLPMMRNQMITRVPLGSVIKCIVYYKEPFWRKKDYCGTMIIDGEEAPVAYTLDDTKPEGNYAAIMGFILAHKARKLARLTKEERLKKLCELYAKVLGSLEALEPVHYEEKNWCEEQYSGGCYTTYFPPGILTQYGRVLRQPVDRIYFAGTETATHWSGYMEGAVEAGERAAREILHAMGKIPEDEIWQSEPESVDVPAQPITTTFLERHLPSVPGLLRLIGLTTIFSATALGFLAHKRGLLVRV
How it was run: as §1

SMILES	IC50 [1] [nM]	IC50 (recombinant human VAP-1) [nM]	IC50 [2] [nM]	IC50 [3] [nM]
NCC(Cn1ncn(Cc2sc(-c3ccc4c(c3)OCO4)cc2F)c1=O)=C(F)F [Example 300, 2-[2-(aminomethyl)-3,3-difluoro-allyl]-4-[[5-(1,3-benzodioxol-5-yl)-3-fluoro-2-thienyl]methyl]-1,2,4-triazol-3-one Trifluoroacetate]	> 100000	1.7	25300	11100
Cc1cc(-c2cc(F)c(Cn3cnn(CC(CN)=C(F)F)c3=O)s2)cc2c1NC(=O)CC2 [Example 304, 6-(5-((1-(2-(aminomethyl)-3,3-difluoroallyl)-5-oxo-1,5-dihydro-4H-1,2,4-triazol-4-yl)methyl)-4-fluorothiophen-2-yl)-8-methyl-3,4-dihydroquinolin-2(1H)-one Trifluoroacetate]	> 100000	0.7	12600	> 100000

Continued, values first:

IC50 [1] [nM]	IC50 (recombinant human VAP-1) [nM]	IC50 [2] [nM]	IC50 [3] [nM]	SMILES
> 100000	0.5	2680	> 100000	CN1C(=O)CCc2cc(-c3cc(F)c(Cn4cnn(CC(CN)=C(F)F)c4=O)s3)ccc21 [Example 301, 6-[5-[[1-[2-(aminomethyl)-3,3-difluoro-allyl]-5-oxo-1,2,4-triazol-4-yl]methyl]-4-fluoro-2-thienyl]-1-methyl-3,4-dihydroquinolin-2-one trifluoroacetate]
> 100000	1.1	19500	> 100000	CCn1cc(-c2cc(F)c(Cn3cnn(CC(CN)=C(F)F)c3=O)s2)cn1 [Example 302, 2-[2-(aminomethyl)-3,3-difluoro-allyl]-4-[[5-(1-ethylpyrazol-4-yl)-3-fluoro-2-thienyl]methyl]-1,2,4-triazol-3-one Trifluoroacetate]
> 100000	0.8	> 100000	> 100000	CN(C)c1ccc(-c2cc(F)c(Cn3cnn(CC(CN)=C(F)F)c3=O)s2)cn1 [Example 303, 2-(2-(aminomethyl)-3,3-difluoroallyl)-4-((5-(6-(dimethylamino)pyridin-3-yl)-3-fluorothiophen-2-yl)methyl)-2,4-dihydro-3H-1,2,4-triazol-3-one trifluoroacetate]
